Laboratory results taken from PubChem BioAssay AID206 (DTP/NCI, 2004).
Where “and” joins values, the source holds several entries; their conditions need not be identical. Equal entries are not always repeated. Records with an inconclusive call do not appear.

Tested on: nude mice, HT29 intrarenal xenograft, tumor weight T/C
Assay: NCI In Vivo Anticancer Drug Screen. Data for tumor model HT29;CX-1 Human Adenocarcinoma (MER+) (intrarenal inoculation) in NU/NU Swiss (nude) mice
Conditions: endpoint: mean tumor weight change, higher = larger tumour
Summary of the method: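 Mice with transplanted tumors are dosed with compound while controls get vehicle only. Survival or tumor burden is then assessed per group, and the treated value is expressed relative to control.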

[1] = dose: 150.0 mg/kg/injection, schedule: Q04DX004 (sc), vehicle: Klucel (hydroxypropylcellulose) (HPC)
[2] = dose: 600.0 mg/kg/injection, schedule: Q04DX004 (sc), vehicle: Klucel (hydroxypropylcellulose) (HPC)
[3] = dose: 75.0 mg/kg/injection, schedule: Q04DX004 (sc), vehicle: Klucel (hydroxypropylcellulose) (HPC)
[4] = dose: 100.0 mg/kg/injection, schedule: Q04DX004 (sc), vehicle: saline with Tween-80
[5] = dose: 200.0 mg/kg/injection, schedule: Q04DX004 (sc), vehicle: saline with Tween-80
[6] = dose: 37.5 mg/kg/injection, schedule: Q04DX004 (sc), vehicle: saline with Tween-80
[7] = dose: 300.0 mg/kg/injection, schedule: Q04DX004 (sc), vehicle: saline with Tween-80
[8] = dose: 25.0 mg/kg/injection, schedule: Q01DX010 (sc), vehicle: water
[9] = dose: 31.25 mg/kg/injection, schedule: Q04DX004 (sc), vehicle: water
[10] = dose: 62.5 mg/kg/injection, schedule: Q04DX004 (sc), vehicle: water

CS(=O)(=O)OCCCCOS(C)(=O)=O
T/C (dose: 6.25 mg/kg/injection, schedule: Q01DX010 (sc), vehicle: saline with Tween-80): 121 % of control
T/C (dose: 25.0 mg/kg/injection, schedule: Q01DX010 (sc), vehicle: saline with Tween-80): 238 % of control

C1CN2CCC1CC2
T/C (dose: 9.38 mg/kg/injection, schedule: Q04DX004 (sc), vehicle: saline with Tween-80): 65 % of control
T/C (dose: 18.75 mg/kg/injection, schedule: Q04DX004 (sc), vehicle: saline with Tween-80): 82 % of control

[N-]=[N+]=C1N=CN=C1c1ncn[nH]1
T/C (dose: 12.5 mg/kg/injection, schedule: Q01DX010 (sc), vehicle: Klucel (hydroxypropylcellulose) (HPC)): 73 % of control
T/C (dose: 25.0 mg/kg/injection, schedule: Q01DX010 (sc), vehicle: Klucel (hydroxypropylcellulose) (HPC)): 41 % of control

CC(=O)C1(O)Cc2c(O)c3c(c(O)c2C(OC2CC(N)C(O)C(C)O2)C1)C(=O)c1ccccc1C3=O (stereo unspecified)
T/C (dose: 1.0 mg/kg/injection, schedule: Q04DX004 (sc), vehicle: water): 67 % of control

O=C(O)CC(NC(=O)CP(=O)(O)O)C(=O)O.[NH-]C1CCCCC1[NH-].[Pt+2] (stereo unspecified)
T/C (dose: 6.25 mg/kg/injection, schedule: Q04DX004 (sc), vehicle: dextrose): 97 % of control
T/C (dose: 12.5 mg/kg/injection, schedule: Q04DX004 (sc), vehicle: dextrose): 25 % of control
T/C (dose: 25.0 mg/kg/injection, schedule: Q04DX004 (sc), vehicle: dextrose): 35 % of control

OCCCN1CCCCC1CO (stereo unspecified)
T/C (dose: 225.0 mg/kg/injection, schedule: Q04DX004 (sc), vehicle: saline): 106 % of control
T/C (dose: 450.0 mg/kg/injection, schedule: Q04DX004 (sc), vehicle: saline): 89 % of control
T/C (dose: 900.0 mg/kg/injection, schedule: Q04DX004 (sc), vehicle: saline): 92 % of control

C/C=C(\C)c1cc(=O)c2c(C)cc3c(c2o1)C(=O)c1c(O)c(C2CC(C)(N(C)C)C(OC(C)=O)C(C)O2)cc(C2CC(N(C)C)C(O)C(C)O2)c1C3=O (stereo unspecified)
T/C (dose: 2.5 mg/kg/injection, schedule: Q04DX004 (sc), vehicle: saline): 102 % of control
T/C (dose: 5.0 mg/kg/injection, schedule: Q04DX004 (sc), vehicle: saline): 93 % of control
T/C (dose: 20.0 mg/kg/injection, schedule: Q04DX004 (sc), vehicle: saline): 37 % of control and 39 % of control

Cc1ccc(S(=O)(=O)OCOS(=O)(=O)c2ccc(C)cc2)cc1
T/C [1]: 118 % of control
T/C (dose: 300.0 mg/kg/injection, schedule: Q04DX004 (sc), vehicle: Klucel (hydroxypropylcellulose) (HPC)): 100 % of control
T/C [2]: 53 % of control
T/C (dose: 1200.0 mg/kg/injection, schedule: Q04DX004 (sc), vehicle: Klucel (hydroxypropylcellulose) (HPC)): 68 % of control

COC1C(/C=C/C(C)=O)OC2OC(C)(C)OC21 (stereo unspecified)
T/C (dose: 75.0 mg/kg/injection, schedule: Q04DX004 (sc), vehicle: suspension in saline): 74 % of control
T/C (dose: 150.0 mg/kg/injection, schedule: Q04DX004 (sc), vehicle: suspension in saline): 106 % of control
T/C (dose: 300.0 mg/kg/injection, schedule: Q04DX004 (sc), vehicle: suspension in saline): 54 % of control
T/C (dose: 600.0 mg/kg/injection, schedule: Q04DX004 (sc), vehicle: suspension in saline): 20 % of control

O=c1s[se]c2ccccc12
T/C [3]: 108 % of control
T/C [1]: 48 % of control
T/C [2]: 74 % of control

COc1cccc2c1C(=O)c1c(O)c3c(c(O)c1C2=O)CC(O)(/C(C)=N/NC(=O)CCCCC(=O)N/N=C(\C)C1(O)Cc2c(O)c4c(c(O)c2C(OC2CC(N)C(O)C(C)O2)C1)C(=O)c1c(OC)cccc1C4=O)CC3OC1CC(N)C(O)C(C)O1 (stereo unspecified)
T/C (dose: 12.5 mg/kg/injection, schedule: Q04DX004 (sc), vehicle: water): 66 % of control
T/C (dose: 25.0 mg/kg/injection, schedule: Q04DX004 (sc), vehicle: water): 98 % of control
T/C (dose: 50.0 mg/kg/injection, schedule: Q04DX004 (sc), vehicle: water): 104 % of control
T/C (dose: 100.0 mg/kg/injection, schedule: Q04DX004 (sc), vehicle: water): 152 % of control

COCCCNC1=C(C#N)C(=O)NC(c2cccc([N+](=O)[O-])c2)S1 (stereo unspecified)
T/C [4]: 91 % of control
T/C [5]: 165 % of control
T/C (dose: 800.0 mg/kg/injection, schedule: Q04DX004 (sc), vehicle: saline with Tween-80): 164 % of control

F[B-](F)(F)F
T/C (dose: 225.0 mg/kg/injection, schedule: Q04DX004 (sc), vehicle: gum acacia): 106 % of control
T/C (dose: 450.0 mg/kg/injection, schedule: Q04DX004 (sc), vehicle: gum acacia): 85 % of control
T/C (dose: 900.0 mg/kg/injection, schedule: Q04DX004 (sc), vehicle: gum acacia): 69 % of control

CCOC(=O)NC1=C(N2CC2)C(=O)C(NC(=O)OCC)=C(N2CC2)C1=O
T/C (dose: 3.13 mg/kg/injection, schedule: Q04DX004 (sc), vehicle: suspension in saline): 55 % of control

CC1=NN(c2cccc(S(=O)(=O)O)c2)C(=O)C1N=Nc1cc(Cl)cc(S(=O)(=O)O)c1O.CC1=NN(c2cccc(S(=O)(=O)O)c2)C(=O)C1N=Nc1cc(Cl)cc(S(=O)(=O)O)c1O.[Cr] (stereo unspecified)
T/C (dose: 150.0 mg/kg/injection, schedule: Q04DX004 (sc), vehicle: saline): 94 % of control
T/C (dose: 300.0 mg/kg/injection, schedule: Q04DX004 (sc), vehicle: saline): 121 % of control
T/C (dose: 600.0 mg/kg/injection, schedule: Q04DX004 (sc), vehicle: saline): 61 % of control

O=C1N=C(Oc2ccccc2)SC1=O
T/C (dose: 50.0 mg/kg/injection, schedule: Q04DX004 (sc), vehicle: saline with Tween-80): 40 % of control
T/C [4]: 76 % of control
T/C [5]: 59 % of control
T/C (dose: 400.0 mg/kg/injection, schedule: Q04DX004 (sc), vehicle: saline with Tween-80): 78 % of control

CSC1SCC2C(=O)N(C)C(C(C)C)C(=O)OCC(NC(=O)c3cnc4ccccc4n3)C(=O)NC(C)C(=O)N(C)C1C(=O)N(C)C(C(C)C)C(=O)OCC(NC(=O)c1cnc3ccccc3n1)C(=O)NC(C)C(=O)N2C (stereo unspecified)
T/C (dose: 30.0 micrograms/kg/injection, schedule: Q01DX010 (sc), vehicle: suspension in saline): 88 % of control
T/C (dose: 60.0 micrograms/kg/injection, schedule: Q01DX010 (sc), vehicle: saline): 49 % of control
T/C (dose: 120.0 micrograms/kg/injection, schedule: Q01DX010 (sc), vehicle: saline): 35 % of control
T/C (dose: 240.0 micrograms/kg/injection, schedule: Q01DX010 (sc), vehicle: saline): 12 % of control

CCCCCCCC(=O)[O][Hg][CH2]C1COC([CH2][Hg][O]C(=O)CCCCCCC)CO1 (stereo unspecified)
T/C [6]: 110 % of control
T/C (dose: 75.0 mg/kg/injection, schedule: Q04DX004 (sc), vehicle: saline with Tween-80): 120 % of control
T/C (dose: 150.0 mg/kg/injection, schedule: Q04DX004 (sc), vehicle: saline with Tween-80): 47 % of control
T/C [7]: 51 % of control

NC(=S)c1cn(C2OC(CO)C(O)C2O)c2ncnc(N)c12 (stereo unspecified)
T/C (dose: 6.25 mg/kg/injection, schedule: Q04DX004 (sc), vehicle: suspension in saline): 62 % of control
T/C (dose: 12.5 mg/kg/injection, schedule: Q04DX004 (sc), vehicle: suspension in saline): 79 % of control

COc1cccc2c1C(=O)c1c(O)c3c(c(O)c1C2=O)CC(O)(/C(C)=N/NC(=O)CCC(=O)N/N=C(\C)C1(O)Cc2c(O)c4c(c(O)c2C(OC2CC(N)C(O)C(C)O2)C1)C(=O)c1c(OC)cccc1C4=O)CC3OC1CC(N)C(O)C(C)O1 (stereo unspecified)
T/C (dose: 6.25 mg/kg/injection, schedule: Q01DX010 (sc), vehicle: water): 114 % of control
T/C (dose: 12.5 mg/kg/injection, schedule: Q01DX010 (sc), vehicle: water): 47 % of control
T/C (dose: 15.63 mg/kg/injection, schedule: Q04DX004 (sc), vehicle: water): 64 % of control
T/C [8]: 46 % of control
T/C [9]: 3 % of control
T/C [10]: 120 % of control

Nc1ncnc2c1nnn2C1OC(CO)C(O)C1O (stereo unspecified)
T/C [3]: 41 % of control

O=Cc1ccc(O)c(O)c1
T/C [7]: 86 % of control
T/C (dose: 600.0 mg/kg/injection, schedule: Q04DX004 (sc), vehicle: saline with Tween-80): 58 % of control
T/C (dose: 1200.0 mg/kg/injection, schedule: Q04DX004 (sc), vehicle: saline with Tween-80): 100 % of control

COc1cccc2c1C(=O)c1c(O)c3c(c(O)c1C2=O)C[C@@](O)(C(C)=O)C[C@@H]3OC1CC(N(Cc2ccccc2)Cc2ccccc2)C(O)C(C)O1 (stereo partly specified)
T/C [8]: 36 % of control
T/C [9]: 104 % of control and 212 % of control
T/C [10]: 97 % of control and 220 % of control

CCCCCCCCCCCCCC#CC(=O)O
T/C [6]: 117 % of control
T/C [7]: 104 % of control

CN(C)N=Nc1cccc(C(N)=O)c1
T/C (dose: 50.0 mg/kg/injection, schedule: Q04DX004 (sc), vehicle: Klucel (hydroxypropylcellulose) (HPC)): 92 % of control and 116 % of control
